The values below come from patent publication US7456187B2, “Furanopyrimidine compounds as potassium ion channel inhibitors” (Xention Limited, priority 2004, dated 2008).

One data set concerns the target T1, human Kv1.5 (Homo sapiens, UniProt P22460).
T1 construct: expressed in transfected cells
Put plainly: Kv1.5 Autopatch Electrophysiology (whole cell patch-clamp). It counts as cell-based. Particulars: compound at 1 μM; cells stably transfected with human Kv1.5; room temperature (22-24° C.); voltage step to 0 mV for 1000 ms from -80 mV, total charge. Here is the method:
Cells stably transfected with cDNA for human Kv1.5 (in pEF6::VA-His-TOPO) were grown in Dulbecco's Modified Eagle media (DMEM) alpha supplemented with 10% Fetal Calf Serum (FCS), 20 μl/ml penicillin (5000 U/ml) streptomycin (5000 μg/ml), 10 μl/ml [100×] glutamine, and blasticidin (7.5 μg/ml).
The external bathing solution contained (in mM): 150 NaCl, 10 KCl, […], 3 MgCl2, 1 CaCl2, 10 HEPES, pH 7.4. Patch pipettes were filled with an electrode solution of composition (in mM): 160 KCl, 0.5 MgCl2, 10 HEPES, 1 EGTA, pH 7.4 with KOH.
Compounds were dissolved in DMSO (100%) and made up in the external bather at a concentration of 1 μM. All experiments were conducted at room temperature (22-24° C.).
A cell suspension (10 ml), with a density of 100,000 cells/ml, was aliquoted into a 15 ml centrifuge tube and transferred to an incubator (37° C., 5% CO2) for approximately one hour before use. Following 60 min incubation, a tube was taken and centrifuged at 1000 rpm for 4 mins at room temperature. 9.5 ml supernatant was thene discarded, leaving a cell pellet at the bottom of the tube. The pellet was then resuspended using 100 μl of cold (4° C.), filtered (0.22 μm), 0.2% BSA/bather solution (0.02 g BSA/10 ml bather). The bottom of the tube was manually agitated gently until the solution became cloudy with cells. The 100 μl cell resuspension solution was then stored on the bench at 4° C. (using a Peltier-based temperature control device) until used.
A length of capillary glass (1B150F-4, WPI) was dipped into the cell suspension solution, such that ˜3 cm column of fluid was taken up by capillary action. An Ag/AgCl wire was dropped into the non-dipped end of the capillary also. The outside of the solution-filled end of the capillary was then dried and the capillary was loaded into the AutoPatch™.
Borosilicate glass patch pipettes (from 1.5 mm OD, thin-walled filamented, GC150-TF capillary glass, Harvard) were pulled using a DMZ pipette puller (Zeitz Instruments), and were back-filled using the internal pipette solution, being careful that no bubbles remain at the tip or in the body of the pipette. Patch pipettes typically had resistances of 2.3-3.5 MΩ. Once filled, the pipette tip and a proportion of the shaft (˜15 mm) were dipped into Sigmacote (Sigma). The recording pipette was then loaded into the AutoPatch™. Automated patch-clamping was initiated by the operator, but thereafter AutoPatch.exe continued the experiment providing that pre-set conditions and criteria were satisfied.
Whole cell patch-clamp recordings were made using the AutoPatch™ rig, which incorporated an EPC9 amplifier (HEKA, Germany) under control of Pulse software (v8.54, HEKA, Germany), a motion controller with 2 translators (Newport, UK), valve controller (VF1) and a c-level suction device all at room temperature (22-24° C.). This equipment was completely under the control of AutoPatch.exe and operator intervention was only made when there was a requirement to refill the drug reservoirs or to prevent the loss of a cell due to a technical error. Cells with an Rseries greater than 18MΩ were discounted from the experiment.
Qualification stages prior to perfusion and drug application ensured that the observed current met the criteria for the experiment. Only those cells with an IK>[…] were used for experiments. Cells were continuously perfused with external solution at a flow rate of 1.8-2 ml/minute. […] Online analysis of the hKv1.5 current during the application of compounds was performed by the AutoPatch™ software.
Electrophysiology voltage-step protocols and analysis of data was performed as follows. Data was sampled at 5 kHz, and filtered with a −3 dB bandwidth of 2.5 kHz. Cells were held at a voltage of −80 mV. Currents were evoked to a voltage step for 1000 ms in duration at 0 mV every 5 s. Currents were analysed using Pulsefit software (v8.54, HEKA, Germany), with the total charge measured during the whole of the voltage step. […]
Background: In patch-clamp work, channel activity is measured electrically.

T1 sequence (P22460 whole entry): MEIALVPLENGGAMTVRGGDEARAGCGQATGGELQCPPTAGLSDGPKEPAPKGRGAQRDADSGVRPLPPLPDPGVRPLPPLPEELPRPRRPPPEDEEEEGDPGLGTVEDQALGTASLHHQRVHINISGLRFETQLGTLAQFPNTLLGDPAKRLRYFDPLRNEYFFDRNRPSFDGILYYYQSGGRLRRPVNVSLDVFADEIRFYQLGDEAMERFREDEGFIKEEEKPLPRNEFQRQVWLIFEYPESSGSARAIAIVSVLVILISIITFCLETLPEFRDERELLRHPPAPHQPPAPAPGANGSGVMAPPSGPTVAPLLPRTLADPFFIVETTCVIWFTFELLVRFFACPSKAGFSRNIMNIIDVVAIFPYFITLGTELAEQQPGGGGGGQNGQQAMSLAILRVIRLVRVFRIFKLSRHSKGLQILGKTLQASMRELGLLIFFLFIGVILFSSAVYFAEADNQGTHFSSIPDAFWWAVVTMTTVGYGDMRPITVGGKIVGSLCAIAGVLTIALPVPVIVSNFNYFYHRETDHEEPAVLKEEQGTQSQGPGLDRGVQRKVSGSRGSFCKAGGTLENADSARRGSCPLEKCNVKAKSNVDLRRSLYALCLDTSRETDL

As usually defined, the melting point is the temperature of the solid-liquid transition. One may read the inhibition as the percentage by which the read-out fell short of the control. A lower inhibition goes with a response near the control. In turn, `Fc1ccc(-c2coc3ncnc(NCc4ccccn4)c23)cc1` [Example 21, 5-(4-Fluorophenyl)-N-(pyridin-2-ylmethyl)furo[2,3-d]pyrimidin-4-amine] displayed a melting point of 162 to 164 °C. Besides, the inhibition at 1 µM at human Kv1.5 was determined as 39.8%.
With `c1ccc(-c2coc3ncnc(NCc4ccccn4)c23)cc1` [Example 22, 5-Phenyl-N-(pyridin-2′-ylmethyl)furo[2,3-d]pyrimidin-4-amine], the “% Inhibition @1 (μM)” value at human Kv1.5 is 54.00%.
On the same count and under the same terms, as for `Clc1ccc(-c2coc3ncnc(NCc4ccccn4)c23)cc1` [Example 23, 5-(4-Chlorophenyl)-N-(pyridin-2′-ylmethyl)furo[2,3-d]pyrimidin-4-amine], the figure is 83.80%.
On to `COc1ccc(-c2coc3ncnc(NCc4ccccn4)c23)cc1OC` [Example 24, 5-(3,4-Dimethoxyphenyl)-N-(pyridin-2′-ylmethyl)furo[2,3-d]pyrimidin-4-amine], for which the “% Inhibition @1 (μM)” value on human Kv1.5 is 15.81%.
Take `c1ccc(CNc2ncnc3occ(-c4ccc5c(c4)OCO5)c23)nc1` [Example 25, 5-(1,3-Benzodioxol-5′-yl)-N-(pyridin-2′-ylmethyl)furo[2,3-d]pyrimidin-4-amine]: the “% Inhibition @1 (μM)” value on human Kv1.5 is recorded as 65.17%.
On the same count and under the same terms, the value for `Cc1oc2ncnc(NCc3ccccn3)c2c1-c1ccccc1` [Example 26, 6-Methyl-5-phenyl-N-(pyridin-2′-ylmethyl)furo[2,3-d]pyrimidin-4-amine] was 83.00%.
For the compound `COCCNc1nc(NCc2ccccn2)c2c(-c3ccccc3)coc2n1` [Example 41, N^2-(2-Methoxyethyl)-5-phenyl-N^4-pyridin-2-ylmethyl-furo[2,3-d]pyrimidine-2,4-diamine], the melting point was 96 to 98 °C. Besides, the inhibition at 1 µM on human Kv1.5 was 99%.
In the case of `c1ccc(-c2coc3nc(N4CCOCC4)nc(NCc4ccccn4)c23)cc1` [Example 42, (2-Morpholin-4-yl-5-phenyl-furo[2,3-d]pyrimidin-4-yl)-puridin-2-ylmethyl-amine], at human Kv1.5, the “% Inhibition @1 (μM)” value worked out at 99.00%.
`OCCN(CCO)c1nc(NCc2ccccn2)c2c(-c3ccccc3)coc2n1` [Example 43, 2-((2-Hydroxyethyl)-{5-Phenyl-4-[(pyridine-2-ylmethyl)-amino]-furo[2,3-d]pyrimidin-2-yl}-amino)-ethanol] displayed an inhibition at 1 µM on human Kv1.5 of 82%.
The same measure, in the same setting: the value for `OCC(CO)Nc1nc(NCc2ccccn2)c2c(-c3ccccc3)coc2n1` [Example 44, 2-{5-Phenyl-4-[(pyridin-2-ylmethyl)-amino]furo[2,3-d]pyrimidin-2-ylamino}-propane-1,3-diol] was 75%; that for `OCCN(CCO)c1nc(NCc2ccccn2)c2c(-c3ccc(F)cc3)coc2n1` [Example 45, 2-((2-Hydroxyethyl)-{5-(4-fluorophenyl)-4-[(pyridine-2-ylmethyl)-amino]-furo[2,3-d]pyrimidin-2-yl}-amino)-ethanol] was 42%.
On to `CN(C)c1nc(NCc2ccccn2)c2c(-c3ccccc3)coc2n1` [Example 46, N^2,N^2-Dimethyl-5-phenyl-N^4-pyridin-2-ylmethyl-furo[2,3-d]pyrimidine-2,4-diamine], for which the melting point was 108 to 110 °C. The inhibition at 1 µM against human Kv1.5 is 99%.
Take `Cc1cccc(CNc2nc(N(C)C)nc3occ(-c4ccccc4)c23)n1` [Example 47, N^2,N^2-Dimethyl-N^4-(6-methyl-pyridin-2-ylmethyl)-5-phenyl-furo[2,3-d]pyrimidine-2,4-diamine]: the melting point was 52 to 54 °C. The compound also had an inhibition at 1 µM against human Kv1.5 of 98%.
Consider `CN(C)c1nc(NCc2ccco2)c2c(-c3ccccc3)coc2n1` [Example 48, N^4-Furan-2-ylmethyl-N^2,N^2-dimethyl-5-phenyl-furo[2,3-d]pyrimidine-2,4-diamine], for which at 1 µM the inhibition against human Kv1.5 was 98%.
On the same count and under the same terms, as for `Cc1oc2nc(N(C)C)nc(NCc3ccccn3)c2c1-c1ccccc1` [Example 49, 6,N^2,N^2-Trimethyl-5-phenyl-N4-pyridin-2-ylmethyl-furo[2,3-d]pyrimidine-2,4-diamine], the figure is 75%.
Compound `Cc1oc2nc(N(C)C)nc(NCc3ccccn3)c2c1-c1ccc(F)cc1` [Example 50, 5-(4-Fluorophenyl)-6,N^2,N^2-trimethyl-N^4-pyridin-2-ylmethyl-furo[2,3-d]pyrimidine-2,4-diamine] yielded a melting point of 107 to 109 °C. The same compound came in with an inhibition at 1 µM on human Kv1.5 of 32%.
On the same counts, the results for `COCCOc1nc(NCc2ccccn2)c2c(-c3ccccc3)coc2n1` [Example 51, [2-(2-Methoxyethoxy)-5-phenyl-furo[2,3-d]pyrimidin-4-yl]-pyridin-2-ylmethylamine] are 97 to 99 °C and 99%.
